Tests used:
Format in all cases: in vivo, Gossypium hirsutum
[1] = test system: mutant pagoda1; test: Shaping of cotton by local application of brassinosteroids
Description: Since brassinosteroids cannot be delivered for a long distance in a plant, a local application thereof may promote the growth of the applied part, without an impact on the far part.

[2] = test system: cotton variety "CRI 24"; test: Response of cotton variety CRI 24 to brassinosteroids (hypocotyledonary axis length); conditions: 500 nM in liquid medium, cotyledon stage to five leaf stage, vs 0.2% ethanol control, average of 20 plants
Procedure: (§1) The mutant pagoda1 and the cotton variety“CRI 24” were identified as below, respectively: • Test Group: cultivating cotton plants of the cotyledon stage in a liquid medium containing 500 nM brassinosteroids (Sigma) to the five leaf stage, to measure the length of its hypocotyledonary axis;
(§2) Control Group: the same as the Test Group, except that brassinosteroids was replaced with an equal volume of an aqueous solution of 0.2% ethanol.
(§3) The length measurements of hypocotyledonary axis of the processed plants from respective groups (an averaged measurement of 20 plants for each group) are shown in FIG. 2. […] For the cotton variety “CRI 24”, after the treatment with brassinosteroids, the hypocotyledonary axis was prolonged by only 16%.

[3] = test system: mutant pagoda1; test: Response of mutant pagoda1 to brassinosteroids (hypocotyledonary axis length); conditions: 500 nM in liquid medium, cotyledon stage to five leaf stage, vs 0.2% ethanol control, average of 20 plants
Procedure: as §1, §2, §3

brassinosteroids
extension of the lateral branch after application to the lateral branch ([1]; 500 nM applied to a lateral branch of a seedling of mutant pagoda1 (FIG. 4B)): significantly extended
growth of the top of the seedling after application to the top ([1]; 500 nM applied to the top of a seedling of mutant pagoda1 (FIG. 4A)): significantly promoting the growth of the top of the seeding
hypocotyledonary axis prolonged after treatment with brassinosteroids [2]: 16%
hypocotyledonary axis prolonged after treatment with brassinosteroids [3]: 270%

Source: US10041085B2, “Plant type related protein, and coding gene and application thereof” (Cotton Research Institute, Chinese Academy of Agricultural …, priority 2013, dated 2018)
